Results as given in patent US20240247030A1, “TARGETED DELIVERY OF TERTIARY AMINE-CONTAINING DRUG SUBSTANCES” (Seagen Inc., priority 2014, published 2024).
Like-named read-outs stand apart in the source and are kept apart here.

Columns and labels:
[1] = Pharmacokinetics of radiolabeled antibody or ADC; type: in vivo, rat; settings: 1 mg/kg i.v., radiolabeled non-targeting ADC
Description: PK test articles were radiolabeled using the following procedure.
Each test article was dosed once in replicate animals.

HEL9217 AML cells = experiment: In vitro cytotoxicity (CellTiter-Glo, 96 h); type: cell-based; settings: Homo sapiens, HEL 92.1.7, 96 h, read-out: IC50, HEL9217, MDR+ AML
HL60 AML cells = experiment: cells; type: cell-based; settings: Homo sapiens, HL-60, 96 h, read-out: IC50, HL60, AML, Table 13; free drug, 96 hours
Description: (§1) In vitro assays. Cells cultured in log-phase growth were seeded for 24 h in 96-well plates containing 150 μL RPMI 1640 supplemented with 20% FBS. Serial dilutions of antibody-drug conjugates in cell culture media were prepared at 4× working concentrations; 50 μL of each dilution was added to the 96-well plates. Following addition of ADC, cells were incubated with test articles for 4 d at 37° C. After 96 h, growth inhibition was assessed by CellTiter-Glo™ (Promega, Madison, W1) and luminescence was measured on a plate reader. The IC50 value, determined in triplicate, is defined here as the concentration that results in a 50% reduction in cell growth relative to untreated controls.

L428 MDR+ HL cells = experiment: In vitro cytotoxicity (CellTiter-Glo, 96 h); type: cell-based
DEL/BVR MDR+ ALCL cells = type: cell-based
Description: as §1

[2] = test system: Hep3B hepatocellular carcinoma cells; experiment: In vitro cytotoxicity (CellTiter-Glo, 96 h); type: cell-based; settings: Table 10; cAC10 conjugate, 8 drug units/Ab; antigen-negative cells
Description: as §1

DEL ALCL cells = type: cell-based
Karpas299 ALCL cells = experiment: In vitro cytotoxicity (CellTiter-Glo, 96 h); type: cell-based
Description: as §1

[3] = test system: L540cy Hodgkin lymphoma cells; experiment: In vitro cytotoxicity (CellTiter-Glo, 96 h); type: cell-based
L428 cells = experiment: Intracellular drug release (LC-MS/MS, 24 hr); type: cell-based; settings: Table 12, free drug @ 50 nM
Description: (§2) Intracellular drug release. TFlα, L428, and HCT-15 cells were used for the study. Cells that had been cultured under normal conditions were harvested and washed into fresh medium at ˜5×10^5 cells/mL. For each treatment condition, 5-15×10^6 cells were plated in T25 or T150 flasks. cOKT9-5023 (8-drugs/Ab) was added at 1 μg/mL to cultures and they were incubated at 37° C., 5% CO2 for 24 hr. For suspension cells, a known volume of cell culture was harvested by centrifugation (500×g, 5 min, 4° C.), and an aliquot of the medium was removed and stored for mass spectral analysis (−20° C.). For adherent cells the medium was carefully removed (an aliquot stored for mass spectral analysis) and the cells lifted with trypsin-EDTA followed by centrifugation (500×g, 5 min, 4° C.) to collect the cell pellet. For both suspension and adherent cells, the harvested cell pellets were resuspended in ice cold PBS and an aliquot was removed for enumeration and determination of average cell diameters using a Vi-Cell XR2.03 cell viability analyzer (Beckman Coulter, Fullerton, CA). The remaining cell suspensions were pelleted (500×g, 5 min) and then washed once more with 1 mL of ice cold PBS. The resulting pellets were stored at −20° C.
(§3) Untreated samples were generated using untreated cell pellets and culture medium for use in calibration curves. Untreated cell pellets were spiked with 4 μL of 25× standard analyte. Both spiked and treated cell pellets were suspended by vortexing in 400 μL of MeOH containing internal standard and placed at −20° C. for 15 min. The samples were then centrifuged at 16,000×g and the supernatants were prepared for solid phase extraction. Untreated culture medium samples (0.5 mL) were spiked with 4 μL of 25× standard. Both spiked and treated culture media were mixed with 10 μL of internal standard and prepared for solid phase extraction. Samples were subjected to solid phase extraction and the recovered drug-containing solutions were dried and reconstituted for quantification by LC-MS/MS. To derive an equation for the quantitation of released drug in the experimental unknown samples, the peak area for each drug standard was divided by the peak area obtained for the internal standard. The resultant peak area ratios were plotted as a function of the standard spiked amounts and the data points were fitted to a curve using linear regression. The peak area ratios obtained for released drug to internal standard in the experimental samples were converted to drug amounts using the derived equation.
(§4) MDR cell lines that are CD71^+ are exposed to an LDC (1 μg/mL) comprised of and antibody targeting CD71 (cOKT9) and a quaternized MDR inhibitor (Tariquidar™). The LDC composition designated as cOKT9-gluc4-T was obtained from compound 36 of Scheme 6 and predominately contains LDCs having 8 D^+ units wherein D^+ is quaternized Tariquidar. The predominate LDC of the composition, after controlled hydrolysis of the succinimide ring system is represented by the structure of: […]

TF1a cells = experiment: Intracellular drug release (LC-MS/MS, 24 hr); type: cell-based; settings: Table 12
Description: as §2, §3, §4

HCT-15 cells = experiment: Intracellular drug release (LC-MS/MS, 24 hr); type: cell-based; settings: Table 12, free drug @ 50 nM
Description: as §2, §3, §4

Ramos NHL cells = experiment: In vitro cytotoxicity (CellTiter-Glo, 96 h); type: cell-based; settings: Table 4
Description: as §1

RL cells = experiment: In vitro cytotoxicity (CellTiter-Glo, 96 h); type: cell-based; settings: Table 4
Description: as §1

[4] = Table 10, cAC10 conjugate, 8 drug units/Ab
[5] = Table 7, cAC10 conjugate of the Drug-Linker, 8 D+/Ab, 96 h
[6] = Table 4, quaternized auristatin E ADC, 8 D+/Ab
[7] = quaternized auristatin E ADC, 8 D+/Ab, CD30-, CD19+

CC[C@H](C)[C@@H]([C@@H](CC(=O)N1CCC[C@H]1[C@H](OC)[C@@H](C)C(=O)N[C@H](C)[C@@H](O)c1ccccc1)OC)N(C)C(=O)[C@@H](NC(=O)[C@H](C(C)C)[N+](C)(C)Cc1ccc(O[C@@H]2O[C@H](C(=O)O)[C@@H](O)[C@H](O)[C@H]2O)c(NC(=O)CCNC(=O)[C@H](CN)N2C(=O)C=CC2=O)c1)C(C)C [Compound 8]
clearance / exposure profile compared with unconjugated antibody (FIG. 12-14) [1]: PK properties identical to that of unmodified antibody through 7 days

CC[C@H](C)[C@H](NC(=O)[C@H]1CCCCN1C)C(=O)N(C)[C@H](C[C@@H](OC(C)=O)c1nc(C(=O)N[C@@H](Cc2ccccc2)C[C@H](C)C(=O)O)cs1)C(C)C [Compound 26, Tubulysin M, reference compound]
IC50 (HEL9217 AML cells): 0.4 nM | IC50 (HL60 AML cells): 0.2 nM

CC[C@H](C)[C@H](NC(=O)[C@H]1CCCC[N+]1(C)Cc1ccc(NC(=O)[C@H](C)NC(=O)[C@@H](NC(=O)[C@H](CN)N2C(=O)C=CC2=O)C(C)C)cc1)C(=O)N(C)[C@H](C[C@@H](OC(C)=O)c1nc(C(=O)N[C@@H](Cc2ccccc2)C[C@H](C)C(=O)O)cs1)C(C)C (stereo partly drawn) [Compound 32, (2R)-2-(((2S,3S)-1-(((1R,3R)-1-acetoxy-1-(4-(((2R,4S)-4-carboxy-1-phenylpentan-2-yl)carbamoyl)thiazol-2-yl)-4-methylpentan-3-yl)(methyl)amino)-3-methyl-1-oxopentan-2-yl)carbamoyl)-1-(4-((S)-2-((S)-2-((S)-3-amino-2-(2,5-dioxo-2,5-dihydro-1H-pyrrol-1-yl)propanamido)-3-methylbutanamido)propanamido)benzyl)-1-methylpiperidin-1-ium]
IC50, L428, MDR+ HL (L428 MDR+ HL cells; [4]): 1 ng/mL | IC50, DEL/BVR, MDR+ ALCL (DEL/BVR MDR+ ALCL cells; [4]): 4 ng/mL | IC50, Hep3B, CD30- HCC [2]: >1000 ng/mL

CCCO[C@H](C[C@H](C(C)C)N(C)C(=O)[C@@H](NC(=O)[C@H]1CCCC[N+]1(C)Cc1ccc(O[C@@H]2O[C@H](C(=O)O)[C@@H](O)[C@H](O)[C@H]2O)c(NC(=O)CCNC(=O)[C@H](CN)N2C(=O)C=CC2=O)c1)[C@@H](C)CC)c1nc(C(=O)N[C@@H](Cc2ccccc2)C[C@H](C)C(=O)O)cs1 (stereo partly drawn) [Compound 80, (2R)-1-(3-(3-((S)-3-amino-2-(2,5-dioxo-2,5-dihydro-1H-pyrrol-1-yl)propanamido)propanamido)-4-(((2S,3R,4S,5S,6S)-6-carboxy-3,4,5-trihydroxytetrahydro-2H-pyran-2-yl)oxy)benzyl)-2-(((2S,3S)-1-(((1R,3R)-1-(4-(((2R,4S)-4-carboxy-1-phenylpentan-2-yl)carbamoyl)thiazol-2-yl)-4-methyl-1-propoxypentan-3-yl)(methyl)amino)-3-methyl-1-oxopentan-2-yl)carbamoyl)-1-methylpiperidin-1-ium]
clearance / exposure profile compared with unconjugated antibody (FIG. 12-14) [1]: cleared from circulation much more rapidly than the unmodified antibody

CC[C@H](C)[C@H](NC(=O)[C@H]1CCCC[N+]1(C)Cc1ccc(O[C@@H]2O[C@H](C(=O)O)[C@@H](O)[C@H](O)[C@H]2O)c(NC(=O)CCNC(=O)[C@H](CN)N2C(=O)C=CC2=O)c1)C(=O)N(C)[C@H](C[C@@H](OC(C)=O)c1nc(C(=O)N[C@@H](Cc2ccccc2)C[C@H](C)C(=O)O)cs1)C(C)C (some centres unmarked) [Compound 104]
IC50, DEL, ALCL (DEL ALCL cells; [5]): 2 ng/mL | IC50, DEL, ALCL (DEL ALCL cells; Table 11, cAC10 conjugate, 8-drugs/mAb): 2 ng/mL | IC50, L428, MDR+ HL (L428 MDR+ HL cells; [5]): 0.5 ng/mL | IC50, L428, MDR+ HL (L428 MDR+ HL cells; [4]): 0.4 ng/mL | IC50, DEL/BVR, MDR+ ALCL (DEL/BVR MDR+ ALCL cells; [5]): 3 ng/mL | IC50, DEL/BVR, MDR+ ALCL (DEL/BVR MDR+ ALCL cells; [4]): 4 ng/mL | IC50, Hep3B, CD30- HCC [2]: >1000 ng/mL | IC50, Karpas299, ALCL (Karpas299 ALCL cells; Table 7, cAC10 (anti-CD30) conjugate of the Drug-Linker, 8 D+/Ab, 96 h): 0.6 ng/mL | IC50, L540cy, HL [3, 5]: 4 ng/mL

CC[C@H](C)[C@H](NC(=O)[C@H]1CCCC[N+]1(C)Cc1ccc(NC(=O)[C@H](CCC(=O)O)NC(=O)[C@@H](NC(=O)[C@H](CN)N2C(=O)C=CC2=O)C(C)C)cc1)C(=O)N(C)[C@H](C[C@@H](OC(C)=O)c1nc(C(=O)N[C@@H](Cc2ccccc2)C[C@H](C)C(=O)O)cs1)C(C)C (stereo partly drawn) [Compound 113, (2R)-2-(((2S,3S)-1-(((1R,3R)-1-acetoxy-1-(4-(((2R,4S)-4-carboxy-1-phenylpentan-2-yl)carbamoyl)thiazol-2-yl)-4-methylpentan-3-yl)(methyl)amino)-3-methyl-1-oxopentan-2-yl)carbamoyl)-1-(4-((S)-2-((S)-2-((S)-3-amino-2-(2,5-dioxo-2,5-dihydro-1H-pyrrol-1-yl)propanamido)-3-methylbutanamido)-4-carboxybutanamido)benzyl)-1-methylpiperidin-1-ium]
IC50, L428, MDR+ HL (L428 MDR+ HL cells; [4]): 0.3 ng/mL | IC50, DEL/BVR, MDR+ ALCL (DEL/BVR MDR+ ALCL cells; [4]): 2 ng/mL | IC50, Hep3B, CD30- HCC [2]: >1000 ng/mL

COc1cc2c(cc1OC)CN(CCc1ccc(NC(=O)c3cc(OC)c(OC)cc3NC(=O)c3cnc4ccccc4c3)cc1)CC2 [Free drug, Tariquidar]
Intracellular drug, L428 (L428 cells): 4.846 µM | extracellular drug, L428 (L428 cells; parenthetic value): 47.0 nM | Intracellular drug, TF1a (TF1a cells; free drug (Tariquidar) @ 50 nM): 3.575 µM | extracellular drug, TF1a (TF1a cells; free drug @ 50 nM, parenthetic: free drug that remains outside the cell): 43.8 nM | Intracellular drug, HCT-15 (HCT-15 cells): 6.649 µM | extracellular drug, HCT-15 (HCT-15 cells; parenthetic value): 44.3 nM

B1: hBU12-14: "vcPAB4-AE ... obtained from compound 14 of Scheme 2 and ... monoclonal antibody hBU12, which targets C19+ cells" (conjugate, chains of the INN, looked up)
VH: QVQLQESGPGLVKPSQTLSLTCTVSGGSISTSGMGVGWIRQHPGKGLEWIGHIWWDDDKRYNPALKSRVTISVDTSKNQFSLKLSSVTAADTAVYYCARMELWSYYFDYWGQGTLVTVSS
VL: EIVLTQSPATLSLSPGERATLSCSASSSVSYMHWYQQKPGQAPRLLIYDTSKLASGIPARFSGSGSGTDFTLTISSLEPEDVAVYYCFQGSVYPFTFGQGTKLEIK
modifications: vcPAB4-auristatin E drug-linker 14
viable cells remaining at the bottom of the dose-response curve, L428 (L428 MDR+ HL cells; Table 4, parenthetic value): 41% | IC50 for cell growth inhibition, L428 (L428 MDR+ HL cells; [6]): 8614 ng/mL | viable cells remaining at the bottom of the dose-response curve, Ramos (Ramos NHL cells; parenthetic value): 0% | IC50 for cell growth inhibition, Ramos (Ramos NHL cells; [7]): 0.7 ng/mL | viable cells remaining at the bottom of the dose-response curve, Karpas-299 (Karpas299 ALCL cells; Table 4, parenthetic value): 10% | IC50 for cell growth inhibition, Karpas-299 (Karpas299 ALCL cells; [6]): 3903 ng/mL | viable cells remaining at the bottom of the dose-response curve, RL (RL cells; parenthetic value): 21% | IC50 for cell growth inhibition, RL (RL cells; [7]): 2110 ng/mL | viable cells remaining at the bottom of the dose-response curve, L540cy parental ([3]; Table 4, parenthetic value): 44% | IC50 for cell growth inhibition, L540cy parental [3, 6]: 5080 ng/mL
